Measurements taken from patent publication US8574604B2, “Methods and compositions for the delivery of biologically active agents” (Interface Biologics, Inc., priority 2005, dated 2013).

Assay: UV/Vis measurement of Methyl Violet complexation by CyD-OF
Type: physicochemical
Conditions: Methyl Violet 0.01 mg/mL in DMSO; decrease in absorbance indicates complexation
Method: CyD-OF (3a) ([…]) was dissolved in DMSO (75 μL). A solution of Methyl Violet (MV, 2.8 mg) in DMSO (28 mL) was prepared at 0.1 mg/mL. One mL of Methyl Violet solution was further diluted with DMSO (10 mL) to form a 0.01 mg/mL solution. The CyD-OF solution (75 μL) was added dropwise to a solution of MV (500 μL) in a 4 mL glass vial over the course of ten minutes. This solution was sealed and left in the dark for 12 hours. A UV/Vis measurement of the Methyl Violet solution at 0.01 mg/mL was taken (A (591 nm)=0.96) as control. The UV/Vis spectrum of the CyD-OF was measured at A (591 nm)=0.63, indicating the intensity of the guest molecules evidently to change upon the addition of molecular receptors. Upon complexation the absorbance decreased, confirming the formation of a complex. A control solution was also prepared.

Substance: Methyl Violet
- UV/Vis absorbance A (591 nm): 0.96
